# Test results: US20140142177A1, “TOPICAL ORGANIC ACID SALT COMPOSITIONS SUITABLE FOR TREATING INFECTIONS” (priority 2009, published 2014)
# Test system: T. rubrum
# Assay: Demonstration of synergistic activity, CLSI Reference Method 38-A2, growth at combined dilutions
# Format: cell-based, Trichophyton rubrum
# Parameters: key to growth of T. rubrum: N=negative growth; P=positive growth
# Conditions: for concentration at which negative growth was shown, individually: T. rubrum, tested individually
# Method: This method is the gold standard used in measuring the antifungal susceptibility of filamentous fungi that cause invasive infections. Fungal colonies are grown on potato glucose agar (PGA). One colony is picked and grown in Sabouraud glucose broth (SGB) at 24° C. for 3 days in the presence of test compound. Microdilution trays are incubated at 24° C., and are read after 5 days of culture. Turbidity in the microdilution wells is scored with the aid of a reading mirror and compared with that of the growth control. A numerical score from 0 to 4 is given to each well using the following scale: 0=optically clear or absence of growth, 1=slight growth (25% of growth control), 2=prominent reduction in growth (50% of growth control), 3=slight reduction in growth (75% of growth control), 4=no reduction in growth.
smiles,measurement,setting,value
"CCC(=O)[O-].CCC(=O)[O-].[Zn+2] [Formulation F9, zinc propionate]",growth of T. rubrum,F9 0.004X alone,P 0.004X
same,growth of T. rubrum,F9 0.007X alone,P 0.007X
same,growth of T. rubrum,F9 0.015X alone,P 0.015X
same,growth of T. rubrum,F9 0.03X alone,N 0.03X
same,growth of T. rubrum,F9 0.06X alone,N 0.06X
same,growth of T. rubrum,F9 0.125X alone,N 0.125X
same,growth of T. rubrum,F9 0.25X alone,N 0.25X
same,"concentration at which negative growth was shown, individually",,0.03 times the initial concentration
"O=C([O-])c1ccccc1.[Na+] [Formulation F11, sodium benzoate]",growth of T. rubrum,F11 0.004X alone,P 0.004X
same,growth of T. rubrum,F11 0.007X alone,P 0.007X
same,growth of T. rubrum,F11 0.015X alone,P 0.015X
same,growth of T. rubrum,F11 0.03X alone,N 0.03X
same,growth of T. rubrum,F11 0.06X alone,N 0.06X
same,growth of T. rubrum,F11 0.125X alone,N 0.125X
same,growth of T. rubrum,F11 0.25X alone,N 0.25X
same,"concentration at which negative growth was shown, individually",,0.03 times the initial concentration
"O=C[O-].[Na+] [Formulation F12, sodium formate]",growth of T. rubrum,F12 0.004X alone,P 0.004X
same,growth of T. rubrum,F12 0.007X alone,P 0.007X
same,growth of T. rubrum,F12 0.015X alone,P 0.015X
same,growth of T. rubrum,F12 0.03X alone,P 0.03X
same,growth of T. rubrum,F12 0.06X alone,N 0.06X
same,growth of T. rubrum,F12 0.125X alone,N 0.125X
same,growth of T. rubrum,F12 0.25X alone,N 0.25X
same,"concentration at which negative growth was shown, individually",,0.06 times the initial concentration
"CC(=O)[O-].[Na+] [Formulation F14, sodium acetate]",growth of T. rubrum,F14 0.004X alone,P 0.004X
same,growth of T. rubrum,F14 0.007X alone,P 0.007X
same,growth of T. rubrum,F14 0.015X alone,P 0.015X
same,growth of T. rubrum,F14 0.03X alone,P 0.03X
same,growth of T. rubrum,F14 0.06X alone,P 0.06X
same,growth of T. rubrum,F14 0.125X alone,N 0.125X
same,growth of T. rubrum,F14 0.25X alone,N 0.25X
same,"concentration at which negative growth was shown, individually",,0.125 times the initial concentration
